Reference: patent US10265294B2, “Compositions and methods for treating epithelial cancer” (YALE UNIVERSITY, priority 2016, dated 2019)

Legend:
Assay type in all cases: cell-based, human
[1] = tested on: OCSC2 (chemoresistant CD44+/MyD88+ ovarian cancer stem cell clone); assay: Real-time measurement of cell number/cell death and IC50, OCSC2 clone; conditions: OCSC2, 24 hours (FIG. 1G)
Description: (§1) CD44+/MyD88+ ovarian cancer stem cell clones (OCSC1 and OCSC2) and CD44−/MyD88− ovarian cancer cells (OCC1 and OCC2) were isolated from either tumor tissue or ascites obtained from patients diagnosed with stage III/IV serous ovarian cancer and propagated (Alvero, et al., 2009, Cell Cycle 8:158-166; Chefetz, et al., 2013, Cell Cycle 12:511-521). The epithelial nature of the isolated cells was determined by immunostaining for Ck18. Purity of the cultures based on CD44 expression by flow cytometry and chemoresistance were routinely tested. Stable expression of nuclear-restricted red fluorescent (in OCSCs) or green fluorescent proteins (in OCCs) was performed by transduction using NUCLIGHT® Red or Green Lentivirus Reagent (Essen Bioscience, Ann Arbor, Mich.). Spheroids were formed from OCSCs by culturing in ultra-low attachment multi-well plates (Corning, Inc., Corning, N.Y.).
(§2) Effect of each compound on cell morphology, growth, and viability was assessed using a kinetic live cell imaging system (Incucyte, Essen Bioscience). Proliferation was calculated as previously described (Alvero, et al., 2011, Mol. Cancer Ther. 10:1385-1393) using metrics from either confluence or fluorescent count from nuclear-restricted RFP or GFP. Cell death was quantified; similarly CELLTOX® Green Cytotoxicity Assay (Promega, Madison, Wis.). IC50 was calculated as described using GraphPad Prism (GraphPad Software Inc., LaJolla, Calif.).
A panel of four different SBP subfamilies with cytotoxic activity against chemoresistant ovarian cancer stem cells were tested for efficacy in inducing ovarian cancer stem cell death. […] The efficacy of each analog was determined based on its IC50.
TRX-E-002 exists as a racemic mixture comprised of two enantiomers, enantiomer A (TRX-E-002-1) and enantiomer B (TRX-E-002-2). Thus, the enantiomers were separated and assessed separately. […]

caspase-3/7 = assay: Caspase Glo assay, caspase-3/7; conditions: 0.245 μM; at 16 and 24 h post treatment
Description: Total protein was extracted and measured as described in Kamsteeg, et al., 2003, Oncogene 22:2611-2620. Activity of caspase 3/7 and caspase 9 was quantified using Caspase Glo assay (Promega).
The activities of caspase-3/7 and caspase-9 were assessed at 2, 4, 6, 8, 16, and 24 hours post-treatment with TRX-E-002-1.

cleaved/active caspase-3 = assay: Western blot for cleaved caspase-3 in OCSC transfected with scramble or c-Jun siRNA; conditions: 2.45 μM for 2 hours then recovery
Description: (§3) SDS-PAGE and Western blots were performed using 20 μg of total protein lysate as described in Kamsteeg, et al., 2003, Oncogene 22:2611-2620. Antibodies used were: mouse anti-phospho ERK (Santa Cruz Biotechnology, Inc., Dallas, Tex.); rabbit anti-phospho c-Jun, rabbit anti c-Jun, rabbit anti-ERK, rabbit anti-cleaved caspase 3 all from Cell Signaling Technology, Danvers, Mass.; and mouse anti-GAPDH (Sigma-Aldrich).
To determine the requirement for c-Jun activation in TRX-E-002-1-induced apoptosis, siRNA was used to knock-down c-Jun in chemoresistant OCSC. […] This upregulation was maintained, even when treatment was removed and cells were allowed to recover (FIG. 5C).

[2] = tested on: OCSCs (CD44+/MyD88+ ovarian cancer stem cells); assay: OCSC growth, morphology, RFP+ cell count and Celltox cell death (kinetic live cell imaging)
Description: as §1, §2
In vitro, conventional chemotherapeutic drugs had negligible effect on OCSC growth even in the μM range (FIG. 1B).
TRX-E-002 exists as a racemic mixture comprised of two enantiomers, enantiomer A (TRX-E-002-1) and enantiomer B (TRX-E-002-2). Thus, the enantiomers were separated and assessed separately. To distinguish between an analog's cytostatic or cytotoxic activity, OCSC clones that are stably transfected with nuclear-restricted RFP were used, which allows an accurate quantification of the number of cells and can be multiplexed with CELLTOX® assay to concomitantly measure the number of dead cells.

[3] = tested on: OCC1 (CD44-/MyD88- ovarian cancer cells); assay: IC50 against chemosensitive ovarian cancer cells OCC1; conditions: read-out: IC50 (percentage of viable cells)
Description: CD44+/MyD88+ ovarian cancer stem cell clones (OCSC1 and OCSC2) and CD44−/MyD88− ovarian cancer cells (OCC1 and OCC2) were isolated from either tumor tissue or ascites obtained from patients diagnosed with stage III/IV serous ovarian cancer and propagated (Alvero, et al., 2009, Cell Cycle 8:158-166; Chefetz, et al., 2013, Cell Cycle 12:511-521). The epithelial nature of the isolated cells was determined by immunostaining for Ck18. Purity of the cultures based on CD44 expression by flow cytometry and chemoresistance were routinely tested. […]
as §2
Once the efficacy of TRX-E-002-1 against chemoresistant OCSC was established, its activity against two clones of chemosensitive ovarian cancer cells (OCC1 and OCC2) was determined.

c-Jun = assay: Phosphokinase array / Western blot for phosphorylated and total c-Jun in OCSCs
Description: as §3
In order to elucidate the early pathways responsible for the sustained cytotoxic effect observed with TRX-E-002-1, a phosphokinase array was performed. The phosphokinase array detected relative phosphorylation levels of 43 different kinases involved in major signal transduction pathways.
The western blot results also validated the decrease in p-ERK in cells treated with TRX-E-002-1. […] The effect on the phosphorylation status of the kinases (upregulation of p-cJun and downregulation of p-ERK) was observed as early as 2 h post-treatment and maintained up to 24 h (FIG. 4A). The phosphorylation levels of c-Jun and ERK correlate with the differential ability of the two doses of TRX-E-002-1 to induce a sustained cytotoxic effect. […] This correlates with the ability of this dose of TRX-E-002-1 to maintain the upregulation of p-cJun and downregulation of p-ERK even when the compound is removed (FIG. 4B). […]

OCSC2 spheroids = assay: 3D spheroid integrity by kinetic imaging; conditions: compared to the control; dose-dependent
Description: as §1
Spheroids represent a 3D in vitro tumor model of multiple cell layers that mimic tumors in vivo. In ovarian cancer, spheroid cultures not only mimic ovarian solid tumors, but also ovarian cancer cells found in malignant ascites. Spheroid cultures allow one to test the capacity of compounds to diffuse through multiple layers of cells and induce cell death. It further allows one to test the efficacy of treatment against the mesenchymal cancer subtype. […]

## COc1cc(C2COc3c(ccc(O)c3C)C2c2ccc(O)cc2)cc(OC)c1O (single isomer, unassigned) [TRX-E-002-1]
[1]
  IC50: 47 nM
caspase-3/7
  caspase-3/7 activity: significant increase
cleaved/active caspase-3; c-Jun knocked-down by siRNA
  cleaved/active caspase-3: not detectable
cleaved/active caspase-3; scramble siRNA
  cleaved/active caspase-3: appearance of cleaved/active caspase-3
[2]; RFP OCSC clones, TRX-E-002-1 beginning at the 0.245 μM dose, TRX-E-002-2 except for the very high dose of 10 μM
  number of nuclear RFP+ cells: significant decrease
[2]; beginning at the 0.245 μM dose
  number of Celltox-positive cells: concomitant increase
[3]
  IC50: 68 nM
c-Jun; Western blot time course
  total c-Jun: time-dependent increase
c-Jun; compared to controls, from 2 h up to 24 h post-treatment
  levels of phosphorylated c-Jun (p-c-Jun): higher levels
OCSC2 spheroids
  amount of intact spheroids: significantly decreased
